Assay results as given in paper PMC10850954, “HDAC6/aggresome processing pathway importance for inflammasome formation is context-dependent” (The Journal of Biological Chemistry, 2024).

Legend:
HDAC3 = HDAC3 (Homo sapiens, UniProt O15379); experiment: In vitro enzymatic assay with purified HDACs; assay type: biochemical
Source text: (§1) To extend these observations in other cell settings, we next made use of a novel HDAC6 proteolysis targeting chimera (PROTAC) degrader, XY-07-35 ([19]). Treatment of cells with XY-07-35 leads to recruitment of the E3 ligase cereblon (CRBN) to HDAC6, ubiquitination, and subsequent proteasomal degradation of HDAC6 (Fig. 3A).
(§2) Figure 3 Effect of […] mediated HDAC6 degradation on NLRP3 inflammasome activation in PBMCs.A, schematic of the mode of action of an HDAC6 degrader. The PROTAC engages both HDAC6 and the E3 ligase cereblon (CRBN), which then leads to ubiquitination and degradation of HDAC6. B, chemical structure of the HDAC6 degrader XY-07-35 and of the negative control XY-07-191 which no longer recruits CRBN. C, in vitro enzymatic assay of compound XY-07-35 on the activity of different HDACs. IC50 for each enzyme is shown. D, XY-07-35 mediated HDAC6 degradation in PBMCs. PBMCs (without or with LPS priming for 4 h) were treated with the indicated compounds and HDAC6 levels were detected by immunoblotting with an anti-HDAC6 antibody. Detection of actin was used as a control for loading. CGP, CGP084892 (Caspase-1 inhibitor); AFN700 is an inhibitor of the NF-kB pathway (IKK inhibitor). E, HDAC6 degradation impact on IL-1β release in PBMCs following MSU 200 μg/ml (5 h), nigericin 2 μM (2 h) or ATP 3 mM (0.5 h) treatment. Cells were first primed with 0.2 ng/ml LPS for 4 h at 37 °C, then treated with MSU, nigericin, and ATP as indicated. The graphs below show the results of three independent experiments using the inducers as indicated. NP3-948 is an inhibitor of the NLRP3 inflammasome. TEXT PRINTED IN THE PICTURE: (C) XY-07-035: Compound IC50 (μM): 1.04 (Target: HDAC1); Compound IC50 (μM): 2.47 (Target: HDAC2); Compound IC50 (μM): 1.44 (Target: HDAC3); Compound IC50 (μM): 5.75 (Target: HDAC5); Compound IC50 (μM): 0.0485 (Target: HDAC6); Compound IC50 (μM): 0.621 (Target: HDAC8) DOUBTS OF THE COPYIST ABOUT THIS PICTURE: XY-07-035, HDAC4, HDAC7 and HDAC9: the table prints only dashes (--), no value, so these rows are left out

HDAC5 = HDAC5 (Homo sapiens, UniProt Q9UQL6); experiment: In vitro enzymatic assay with purified HDACs; assay type: biochemical
Sequence of HDAC5 (Q9UQL6 whole entry, species assumed): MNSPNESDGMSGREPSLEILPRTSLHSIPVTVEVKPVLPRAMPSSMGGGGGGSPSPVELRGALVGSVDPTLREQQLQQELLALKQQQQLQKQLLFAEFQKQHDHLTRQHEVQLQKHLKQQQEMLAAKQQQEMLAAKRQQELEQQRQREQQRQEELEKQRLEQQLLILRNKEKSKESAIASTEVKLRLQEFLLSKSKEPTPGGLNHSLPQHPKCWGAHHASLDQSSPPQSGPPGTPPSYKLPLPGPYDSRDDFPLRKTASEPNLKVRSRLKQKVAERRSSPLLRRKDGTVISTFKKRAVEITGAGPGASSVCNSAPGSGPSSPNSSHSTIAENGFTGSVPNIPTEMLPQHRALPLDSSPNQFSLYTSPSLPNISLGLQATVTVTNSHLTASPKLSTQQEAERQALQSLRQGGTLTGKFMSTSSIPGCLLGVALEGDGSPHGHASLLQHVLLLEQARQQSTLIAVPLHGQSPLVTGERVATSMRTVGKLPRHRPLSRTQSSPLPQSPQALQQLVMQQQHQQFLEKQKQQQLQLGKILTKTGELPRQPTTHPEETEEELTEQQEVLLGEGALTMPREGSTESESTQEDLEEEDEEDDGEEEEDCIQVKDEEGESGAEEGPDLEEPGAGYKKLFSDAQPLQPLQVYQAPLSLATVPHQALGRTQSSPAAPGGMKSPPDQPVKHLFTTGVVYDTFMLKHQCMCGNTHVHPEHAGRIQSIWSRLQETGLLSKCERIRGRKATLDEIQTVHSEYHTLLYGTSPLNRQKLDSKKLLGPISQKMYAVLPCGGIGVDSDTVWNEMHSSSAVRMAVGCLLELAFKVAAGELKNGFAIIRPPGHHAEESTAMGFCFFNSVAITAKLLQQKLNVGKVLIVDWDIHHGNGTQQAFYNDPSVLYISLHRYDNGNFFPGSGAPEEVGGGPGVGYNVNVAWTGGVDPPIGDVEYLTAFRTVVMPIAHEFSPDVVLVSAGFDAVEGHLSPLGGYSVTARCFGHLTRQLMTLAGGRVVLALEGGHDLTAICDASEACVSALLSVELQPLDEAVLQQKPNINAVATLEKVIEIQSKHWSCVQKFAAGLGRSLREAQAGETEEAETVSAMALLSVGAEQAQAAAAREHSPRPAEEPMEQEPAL
Source text: as §1, §2

HDAC8 = molecular target: T1, HDAC8 (Homo sapiens, UniProt Q9BY41); experiment: In vitro enzymatic assay with purified HDACs; assay type: biochemical
T1 sequence (Q9BY41 1-377): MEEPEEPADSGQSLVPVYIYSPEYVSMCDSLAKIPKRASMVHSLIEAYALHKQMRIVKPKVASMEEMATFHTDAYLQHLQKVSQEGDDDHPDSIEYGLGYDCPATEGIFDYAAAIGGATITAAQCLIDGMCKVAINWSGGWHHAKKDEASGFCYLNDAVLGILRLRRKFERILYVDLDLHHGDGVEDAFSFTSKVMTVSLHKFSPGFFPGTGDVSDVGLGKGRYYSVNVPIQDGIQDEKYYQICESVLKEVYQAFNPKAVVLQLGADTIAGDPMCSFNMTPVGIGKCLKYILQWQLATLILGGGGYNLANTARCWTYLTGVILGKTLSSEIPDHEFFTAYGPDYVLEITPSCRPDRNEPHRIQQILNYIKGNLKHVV
Source text: as §1, §2

HEK293T cells = experiment: CTG cell viability assay; assay type: cell-based; details: broad concentration range, 70 h
Procedure: (§3) U937, Jurkat, and HEK293T cells were plated with a density of 10^5 cells/ml, with 50 μl/well in a white 384 well plate (Corning #3570). Two hours after plating, XY-07-035 was dispensed to each well using HPd300e and incubated at 37 °C for 70 h. CellTiter-Glo (CTG) Luminescent Cell Viability Assay (Promega #G7572) was then used to measure cell viability. Aliquoted frozen CTG reagent and cell plates were warmed to room temperature prior to loading. After the plates were cooled to room temperature, the CTG reagent was loaded 15 μl/well with an electronic multichannel pipette. […] The luminescence signal was read over ten cycles for each data point on a PHERAstar FS microplate reader (BMG Labtech). The Relative abundance was calculated as the sum of the averages of duplicate individual 12-point dose-response data points.
(§4) Supplementary file mmc1.pdf: Supporting Figure S1 BMDM cells were primed by LPS (1 μg/ml) for 4 hrs and then challenged with 20 μM nigericin. 50 μl supernatant was collected every 15 min (up to 90 min) and mIL-1β level was determined by HTRF assay. […] DARPin F10 was detected by anti-HA antibody. […] Cells were treated with different concentrations of the degrader, and cell viability determined by CTG assay was normalized to the non-treated group. […] Supporting Figure S4: Cell viability was measured by resazurin assay, and fluorescence intensity was a representative of the viability.

Jurkat cells = experiment: CTG cell viability assay; assay type: cell-based; details: broad concentration range, 70 h
Procedure: as §3, §4

U937 cells = experiment: CTG cell viability assay; assay type: cell-based, human; details: U937, broad concentration range, 70 h
Procedure: as §3, §4

Sequence of HDAC3 (O15379 whole entry, species assumed): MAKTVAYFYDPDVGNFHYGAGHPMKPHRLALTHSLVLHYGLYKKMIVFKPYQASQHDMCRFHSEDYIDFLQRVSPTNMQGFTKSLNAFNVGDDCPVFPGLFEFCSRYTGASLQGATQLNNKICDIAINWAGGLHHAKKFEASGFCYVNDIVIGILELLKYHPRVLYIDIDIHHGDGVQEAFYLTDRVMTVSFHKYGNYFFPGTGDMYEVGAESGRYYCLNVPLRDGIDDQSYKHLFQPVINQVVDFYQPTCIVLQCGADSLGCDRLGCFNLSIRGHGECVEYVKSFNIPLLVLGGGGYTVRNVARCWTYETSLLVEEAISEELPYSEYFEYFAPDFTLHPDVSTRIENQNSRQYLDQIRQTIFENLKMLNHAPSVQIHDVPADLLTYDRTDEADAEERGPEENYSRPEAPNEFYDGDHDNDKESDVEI
Sequence of HDAC3 (Q9Y618 395-489 partner limits assumed, species assumed): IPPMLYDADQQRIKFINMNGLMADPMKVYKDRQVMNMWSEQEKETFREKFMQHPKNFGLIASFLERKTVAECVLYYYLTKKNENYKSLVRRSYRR

CN(C(=O)CCCNc1cccc2c1C(=O)N(C1CCC(=O)NC1=O)C2=O)c1ccc(NC(=O)CCCCCCC(=O)NO)cc1 (stereo not drawn) [XY-07-35]
IC50 (HDAC3): 1440 nM
IC50 (HDAC5): 5750 nM
IC50 (HDAC8): 621 nM
cellular toxicity (HEK293T cells): does not show cellular toxicity
cellular toxicity (Jurkat cells): does not show cellular toxicity
cellular toxicity (U937 cells): does not show cellular toxicity
